In patent US10435398B2, “Oxazole orexin receptor antagonists” (MERCK SHARP & DOHME CORP., priority 2014, dated 2019):
pIC50: −log10 of the molar value.

Assays:
[1] = target: human orexin-2 receptor (Homo sapiens (Human), UniProt O43614); experiment: FLIPR Ca2+ Flux Assay, hOX2R; type: cell-based; conditions: CHO cells expressing human orexin-2 receptor; agonist 70 pM Ala-6,12 human orexin-A
Experimental: (§1) The utility of the compounds in accordance with the present invention as orexin receptor OX1R and/or OX2R antagonists may be readily determined without undue experimentation by methodology well known in the art, including the “FLIPR Ca^2+ Flux Assay” (Okumura et al., Biochem. Biophys. Res. Comm. 280:976-981, 2001). In a typical experiment the OX1 and OX2 receptor antagonistic activity of the compounds of the present invention was determined in accordance with the following experimental method. For intracellular calcium measurements, Chinese hamster ovary (CHO) cells expressing the rat or human orexin-1 receptor or the human orexin-2 receptor, are grown in Iscove's modified DMEM containing 2 mM L-glutamine, […], 1% hypoxanthine-thymidine supplement, 100 U/ml penicillin, 100 μg/ml streptomycin and 10% heat-inactivated fetal calf serum (FCS). The cells are seeded at 20,000 cells/well into Becton-Dickinson black 384-well clear bottom sterile plates coated with poly-D-lysine. All reagents were from GIBCO-Invitrogen Corp. The seeded plates are incubated overnight at 37° C. and 5% CO2. Ala-6,12 human orexin-A as the agonist is prepared as a 1 mM stock solution in 1% bovine serum albumin (BSA) and diluted in assay buffer (HBSS containing 20 mM HEPES, 0.1% BSA and 2.5 mM probenecid, pH7.4) for use in the assay at a final concentration of 70 pM. Test compounds are prepared as 10 mM stock solution in DMSO, then diluted in 384-well plates, first in DMSO, then assay buffer. On the day of the assay, cells are washed 3 times with 100 μl assay buffer and then incubated for 60 min (37° C., 5% CO2) in 60 μl assay buffer containing 1 μM Fluo-4AM ester, 0.02% pluronic acid, and 1% BSA. The dye loading solution is then aspirated and cells are washed 3 times with 100 μl assay buffer. 30 μl of that same buffer is left in each well. Within the Fluorescent Imaging Plate Reader (FLIPR, Molecular Devices), test compounds are added to the plate in a volume of 25 μl, incubated for 5 min and finally 25 μl of agonist is added. Fluorescence is measured for each well at 1 second intervals for 5 minutes and the height of each fluorescence peak is compared to the height of the fluorescence peak induced by 70 pM Ala-6,12 orexin-A with buffer in place of antagonist. For each antagonist, IC50 value (the concentration of compound needed to inhibit 50% of the agonist response) is determined. Alternatively, compound potency can be assessed by a radioligand binding assay (described in Bergman et. al. Bioorg. Med. Chem. Lett. 2008, 18, 1425-1430) in which the inhibition constant (Ki) is determined in membranes prepared from CHO cells expressing either the OX1 or OX2 receptor. The intrinsic orexin receptor antagonist activity of a compound which may be used in the present invention may be determined by these assays.

[2] = target: human orexin-1 receptor (Homo sapiens (Human), UniProt O43613); experiment: FLIPR Ca2+ Flux Assay, hOX1R; type: cell-based; conditions: CHO cells expressing human orexin-1 receptor; agonist 70 pM Ala-6,12 human orexin-A
Chain of human orexin-1 receptor (O43613 whole entry): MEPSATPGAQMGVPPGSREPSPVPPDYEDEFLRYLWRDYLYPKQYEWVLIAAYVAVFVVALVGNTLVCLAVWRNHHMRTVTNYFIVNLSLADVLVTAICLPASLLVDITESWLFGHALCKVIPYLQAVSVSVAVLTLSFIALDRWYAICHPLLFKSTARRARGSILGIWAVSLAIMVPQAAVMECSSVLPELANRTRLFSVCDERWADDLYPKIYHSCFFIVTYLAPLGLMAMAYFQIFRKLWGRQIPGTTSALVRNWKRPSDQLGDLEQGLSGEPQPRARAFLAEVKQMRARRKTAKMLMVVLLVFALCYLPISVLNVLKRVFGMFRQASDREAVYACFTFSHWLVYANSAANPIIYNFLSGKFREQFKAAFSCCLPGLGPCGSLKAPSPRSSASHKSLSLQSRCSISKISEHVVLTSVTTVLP
Experimental: as §1

Chain of human orexin-2 receptor (O43614 whole entry): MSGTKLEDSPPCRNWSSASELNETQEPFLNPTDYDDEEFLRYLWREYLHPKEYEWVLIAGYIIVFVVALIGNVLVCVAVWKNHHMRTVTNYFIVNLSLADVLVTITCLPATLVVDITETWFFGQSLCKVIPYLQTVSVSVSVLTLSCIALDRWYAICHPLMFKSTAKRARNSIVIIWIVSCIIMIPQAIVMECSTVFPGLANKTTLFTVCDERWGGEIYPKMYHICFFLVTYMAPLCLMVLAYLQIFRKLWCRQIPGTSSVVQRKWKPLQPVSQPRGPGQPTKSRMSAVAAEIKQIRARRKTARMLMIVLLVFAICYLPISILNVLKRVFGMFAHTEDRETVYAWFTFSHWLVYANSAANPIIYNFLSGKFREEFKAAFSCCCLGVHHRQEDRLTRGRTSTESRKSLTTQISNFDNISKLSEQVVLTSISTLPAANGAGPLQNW

SMILES | pIC50 [1] | pIC50 [2]
Cc1oc(CCN(CC(F)F)C(=O)c2ccccc2-n2nccn2)nc1C(C)(C)O [Example 24, N-(2,2-Difluoroethyl)-N-{2-[4-(1-hydroxy-1-methylethyl)-5-methyl-1,3-oxazol-2-yl]ethyl}-2-(2H-1,2,3-triazol-2-yl)benzamide] | 7.17 | < 5.00
Cc1oc(CCN(C(=O)c2ccccc2-n2nccn2)C(C)C)nc1C(C)(C)O [Example 25, N-{2-[4-(1-Hydroxy-1-methylethyl)-5-methyl-1,3-oxazol-2-yl]ethyl}-N-(1-methylethyl)-2-(2H-1,2,3-triazol-2-yl)benzamide] | 6.82 | < 5.00
Cc1oc(CCN(CCCO)C(=O)c2ccccc2-n2nccn2)nc1C(C)(C)O [Example 27, N-{2-[4-(1-Hydroxy-1-methylethyl)-5-methyl-1,3-oxazol-2-yl]ethyl}-N-(3-hydroxypropyl)-2-(2H-1,2,3-triazol-2-yl)benzamide] | 6.52 | < 5.00
Cc1oc(CCN(CCO)C(=O)c2ccccc2-n2nccn2)nc1C(C)(C)O [Example 28, N-(2-hydroxyethyl)-N-(2-(4-(2-hydroxypropan-2-yl)-5-methyloxazol-2-yl)ethyl)-2-(2H-1,2,3-triazol-2-yl)benzamide] | 7.01 | < 5.00
COCCN(CCc1nc(C(C)(C)O)c(C)o1)C(=O)c1ccccc1-n1nccn1 [Example 29, N-(2-(4-(2-Hydroxypropan-2-yl)-5-methyloxazol-2-yl)ethyl)-N-(2-methoxyethyl)-2-(2H-1,2,3-triazol-2-yl)benzamide] | 7.72 | < 5.00
Cc1oc(CCN(C)C(=O)c2ccccc2-n2nccn2)nc1C(C)(C)O [Example 30, N-(2-(4-(2-Hydroxypropan-2-yl)-5-methyloxazol-2-yl)ethyl)-N-methyl-2-(2H-1,2,3-triazol-2-yl)benzamide] | 6.41 | < 5.00
Cc1oc(CCN(C(=O)c2ccccc2-n2nccn2)C2CC2)nc1C(C)(C)O [Example 31, N-Cyclopropyl-N-(2-(4-(2-hydroxypropan-2-yl)-5-methyloxazol-2-yl)ethyl)-2-(2H-1,2,3-triazol-2-yl)benzamide] | 7.38 | 5.12
Cc1oc(CCN(C(=O)c2ccccc2-n2nccn2)C2CCC2)nc1C(C)(C)O [Example 32, N-Cyclobutyl-N-(2-(4-(2-hydroxypropan-2-yl)-5-methyloxazol-2-yl)ethyl)-2-(2H-1,2,3-triazol-2-yl)benzamide] | 7.42 | 5.09
COCCCN(CCc1nc(C(C)(C)O)c(C)o1)C(=O)c1ccccc1-n1nccn1 [Example 33, N-(2-(4-(2-Hydroxypropan-2-yl)-5-methyloxazol-2-yl)ethyl)-N-(3-methoxypropyl)-2-(2H-1,2,3-triazol-2-yl)benzamide] | 6.92 | < 5.00
